Structures are written as SMILES.

T1 sequence (Q14191 517-1235 L1074F): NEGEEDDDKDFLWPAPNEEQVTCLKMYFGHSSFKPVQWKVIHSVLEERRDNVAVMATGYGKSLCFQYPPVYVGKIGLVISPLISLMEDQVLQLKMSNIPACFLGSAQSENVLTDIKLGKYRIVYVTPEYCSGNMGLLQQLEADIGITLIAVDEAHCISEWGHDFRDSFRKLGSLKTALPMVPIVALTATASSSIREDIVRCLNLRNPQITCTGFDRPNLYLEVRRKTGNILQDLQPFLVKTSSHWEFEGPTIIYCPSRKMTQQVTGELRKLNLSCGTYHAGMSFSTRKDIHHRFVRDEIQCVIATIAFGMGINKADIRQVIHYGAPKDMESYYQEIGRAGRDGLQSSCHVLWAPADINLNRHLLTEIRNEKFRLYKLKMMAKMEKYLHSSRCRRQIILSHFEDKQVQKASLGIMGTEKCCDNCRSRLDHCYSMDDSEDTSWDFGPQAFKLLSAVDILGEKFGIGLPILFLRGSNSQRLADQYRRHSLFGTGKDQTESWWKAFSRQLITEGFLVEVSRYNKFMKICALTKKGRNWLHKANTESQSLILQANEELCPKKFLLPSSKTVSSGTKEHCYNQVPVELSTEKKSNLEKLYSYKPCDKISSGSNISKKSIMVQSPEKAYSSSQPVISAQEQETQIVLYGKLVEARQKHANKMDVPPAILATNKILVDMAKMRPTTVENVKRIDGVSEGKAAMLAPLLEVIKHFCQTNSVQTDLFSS

This assay has as its target T1, human Werner helicase (Uniprot Q14191, amino acids 517-1235 with L1074F point mutation), WRN-BV08 (Homo sapiens, UniProt Q14191, L1074F).
T1 construct: Uniprot Q14191, amino acids 517-1235 with L1074F point mutation; TEV cleavable 8xHis tag (C, cleaved yes); made in house; host or cells: Sf9 insect cells (baculovirus, pFastBac)
Put plainly: WRN (BV08) ADP-Glo Assay. Format: biochemical. (In general: ADP-Glo first removes unused ATP, then detects ADP through luciferase.)
As usually defined, the IC50 is the point on the concentration scale where inhibition reaches its midpoint. `CCc1c(N2CCC3C2CCN3C(=O)c2cnn(C)c2)c(=O)n2nc(C3=CCOCC3)nc2n1CC(=O)Nc1ccc(C(F)(F)F)cc1Cl` (stereo not drawn) [Compound I-68, N-[2-chloro-4-(trifluoromethyl)phenyl]-2-[2-(3,6-dihydro-2H-pyran-4-yl)-5-ethyl-6-[4-(1-methyl-1H-pyrazole-4-carbonyl)-octahydropyrrolo[3,2-b]pyrrol-1-yl]-7-oxo-4H,7H-[1,2,4]triazolo[1,5-a]pyrimidin-4-yl]acetamide] displayed an IC50 of 50 to 100 nM.

As for `CCc1c(N2CCN(C(=O)c3cnn(C)c3)CC2)c(=O)n2nc(-c3cc(OC)ccn3)nc2n1CC(=O)Nc1ccc(C(F)(F)F)cc1Cl` [Compound I-69, N-[2-chloro-4-(trifluoromethyl)phenyl]-2-[5-ethyl-2-(4-methoxypyridin-2-yl)-6-[4-(1-methyl-1H-pyrazole-4-carbonyl)piperazin-1-yl]-7-oxo-4H,7H-[1,2,4]triazolo[1,5-a]pyrimidin-4-yl]acetamide], the IC50 lay within 5 to 50 nM.

`CCc1c(N2CCN(C(=O)c3cnn(C)c3)CC2)c(=O)n2nc(-c3nccc(OC)n3)nc2n1CC(=O)Nc1ccc(C(F)(F)F)cc1Cl` [Compound I-70, N-[2-chloro-4-(trifluoromethyl)phenyl]-2-[5-ethyl-2-(4-methoxypyrimidin-2-yl)-6-[4-(1-methyl-1H-pyrazole-4-carbonyl)piperazin-1-yl]-7-oxo-4H,7H-[1,2,4]triazolo[1,5-a]pyrimidin-4-yl]acetamide] yielded an IC50 of 100 to 500 nM.

With `CCc1c(N2CCN(C(=O)c3cnn(C)c3)CC2)c(=O)n2nc(-c3cc(OC)ncn3)nc2n1CC(=O)Nc1ccc(C(F)(F)F)cc1Cl` [Compound I-71, N-[2-chloro-4-(trifluoromethyl)phenyl]-2-[5-ethyl-2-(6-methoxypyrimidin-4-yl)-6-[4-(1-methyl-1H-pyrazole-4-carbonyl)piperazin-1-yl]-7-oxo-4H,7H-[1,2,4]triazolo[1,5-a]pyrimidin-4-yl]acetamide], the IC50 lay in the range of 5 to 50 nM.

On to `CCc1c(N2CCN(C(=O)c3cnn(C)c3)CC2)c(=O)n2nc(-c3cc(OC)ncc3F)nc2n1CC(=O)Nc1ccc(C(F)(F)F)cc1Cl` [Compound I-72, N-[2-chloro-4-(trifluoromethyl)phenyl]-2-[5-ethyl-2-(5-fluoro-2-methoxypyridin-4-yl)-6-[4-(1-methyl-1H-pyrazole-4-carbonyl)piperazin-1-yl]-7-oxo-4H,7H-[1,2,4]triazolo[1,5-a]pyrimidin-4-yl]acetamide], for which the 50% inhibitory concentration (IC50) lay within 5 to 50 nM.

Turning to `CCc1c(N2CCN(C(=O)c3ncn(C)n3)CC2)c(=O)n2nc(-c3ccnc(OC)c3)nc2n1CC(=O)Nc1ccc(C(F)(F)F)cc1Cl` [Compound I-73, N-[2-chloro-4-(trifluoromethyl)phenyl]-2-[5-ethyl-2-(2-methoxypyridin-4-yl)-6-[4-(1-methyl-1H-1,2,4-triazole-3-carbonyl)piperazin-1-yl]-7-oxo-4H,7H-[1,2,4]triazolo[1,5-a]pyrimidin-4-yl]acetamide], the IC50 fell in the range of 5 to 50 nM.

Consider `CCc1c(N2CCN(C(=O)c3nnn(C)n3)CC2)c(=O)n2nc(-c3ccnc(OC)c3)nc2n1CC(=O)Nc1ccc(C(F)(F)F)cc1Cl` [Compound I-74, N-[2-chloro-4-(trifluoromethyl)phenyl]-2-[5-ethyl-2-(2-methoxypyridin-4-yl)-6-[4-(2-methyl-2H-1,2,3,4-tetrazole-5-carbonyl)piperazin-1-yl]-7-oxo-4H,7H-[1,2,4]triazolo[1,5-a]pyrimidin-4-yl]acetamide], for which the 50% inhibitory concentration (IC50) is 5 to 50 nM.

`CCc1c(N2CCN(C(=O)c3coc(C)n3)CC2)c(=O)n2nc(-c3ccnc(OC)c3)nc2n1CC(=O)Nc1ccc(C(F)(F)F)cc1Cl` [Compound I-75, N-[2-chloro-4-(trifluoromethyl)phenyl]-2-[5-ethyl-2-(2-methoxypyridin-4-yl)-6-[4-(2-methyl-1,3-oxazole-4-carbonyl)piperazin-1-yl]-7-oxo-4H,7H-[1,2,4]triazolo[1,5-a]pyrimidin-4-yl]acetamide] showed an IC50 of 5 to 50 nM.

Consider `CCc1c(N2CCN(C(=O)c3cc(C)ns3)CC2)c(=O)n2nc(-c3ccnc(OC)c3)nc2n1CC(=O)Nc1ccc(C(F)(F)F)cc1Cl` [Compound I-76, N-[2-chloro-4-(trifluoromethyl)phenyl]-2-[5-ethyl-2-(2-methoxypyridin-4-yl)-6-[4-(3-methyl-1,2-thiazole-5-carbonyl)piperazin-1-yl]-7-oxo-4H,7H-[1,2,4]triazolo[1,5-a]pyrimidin-4-yl]acetamide], for which the IC50 was 5 to 50 nM.

`CCc1c(N2CCN(C(=O)c3cnn(C)c3)[C@H](C)C2)c(=O)n2nc(-c3ccnc(OC)c3)nc2n1CC(=O)Nc1ccc(C(F)(F)F)cc1Cl` [Compound I-77, N-[2-chloro-4-(trifluoromethyl)phenyl]-2-[5-ethyl-2-(2-methoxypyridin-4-yl)-6-[(3R)-3-methyl-4-(1-methyl-1H-pyrazole-4-carbonyl)piperazin-1-yl]-7-oxo-4H,7H-[1,2,4]triazolo[1,5-a]pyrimidin-4-yl]acetamide]: the IC50 was 5 to 50 nM.

With `CCc1c(N2CCN(C(=O)c3noc(C)n3)CC2)c(=O)n2nc(-c3ccnc(OC)c3)nc2n1CC(=O)Nc1ccc(C(F)(F)F)cc1Cl` [Compound I-78, N-[2-chloro-4-(trifluoromethyl)phenyl]-2-[5-ethyl-2-(2-methoxypyridin-4-yl)-6-[4-(5-methyl-1,2,4-oxadiazole-3-carbonyl)piperazin-1-yl]-7-oxo-4H,7H-[1,2,4]triazolo[1,5-a]pyrimidin-4-yl]acetamide], the IC50 is 5 to 50 nM.

In turn, `CCc1c(N2CCN(C(=O)c3ncnn3C)CC2)c(=O)n2nc(-c3ccnc(OC)c3)nc2n1CC(=O)Nc1ccc(C(F)(F)F)cc1Cl` [Compound I-79, N-[2-chloro-4-(trifluoromethyl)phenyl]-2-[5-ethyl-2-(2-methoxypyridin-4-yl)-6-[4-(1-methyl-1H-1,2,4-triazole-5-carbonyl)piperazin-1-yl]-7-oxo-4H,7H-[1,2,4]triazolo[1,5-a]pyrimidin-4-yl]acetamide] registered an IC50 of 5 to 50 nM.

In the case of `CCc1c(N2CCN(C(=O)c3ccnc(OC)c3O)CC2)c(=O)n2nc(-c3ccnc(OC)c3)nc2n1CC(=O)Nc1ccc(C(F)(F)F)cc1Cl` [Compound I-80, N-[2-chloro-4-(trifluoromethyl)phenyl]-2-{5-ethyl-6-[4-(3-hydroxy-2-methoxypyridine-4-carbonyl)piperazin-1-yl]-2-(2-methoxypyridin-4-yl)-7-oxo-4H,7H-[1,2,4]triazolo[1,5-a]pyrimidin-4-yl}acetamide], the IC50 lay within 5 to 50 nM.

As to `COc1cc(-c2nc3n(CC(=O)Nc4ccc(C(F)(F)F)cc4Cl)cc(C4CCN(C(=O)c5ncnc(C)c5O)CC4)c(=O)n3n2)ccn1` [Compound I-81, N-[2-chloro-4-(trifluoromethyl)phenyl]-2-{6-[1-(5-hydroxy-6-methylpyrimidine-4-carbonyl)piperidin-4-yl]-2-(2-methoxypyridin-4-yl)-7-oxo-4H,7H-[1,2,4]triazolo[1,5-a]pyrimidin-4-yl}acetamide], the IC50 fell in the range of 100 to 500 nM.

Compound `CCc1c(N2CCN(C(=O)c3cnn(C)c3)CC2)c(=O)n2nc(-c3ccnc(OC)c3)nc2n1CC(=O)Nc1ccc(S(F)(F)(F)(F)F)cc1Cl` [Compound I-82, N-[2-chloro-4-(pentafluoro-lambda6-sulfanyl)phenyl]-2-[5-ethyl-2-(2-methoxypyridin-4-yl)-6-[4-(1-methyl-1H-pyrazole-4-carbonyl)piperazin-1-yl]-7-oxo-4H,7H-[1,2,4]triazolo[1,5-a]pyrimidin-4-yl]acetamide] returned an IC50 of 5 to 50 nM.

The values above are taken from patent publication US20260356840A1, “[1,2,4]TRIAZOLO[1,5-A]PYRIMIDINONE WRN INHIBITORS” (Nimbus Wadjet, Inc., priority 2023, published 2026).
